From PubChem BioAssay (NCI)
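Cells were grown in 96-well plates and exposed to each compound for 48 hours at five concentrations; endpoints were interpolated linearly between bracketing concentrations, or set to the highest concentration if not reached. Abbreviation: GI50, concentration required for 50% inhibition of growth. At the TGI there is no net growth.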

Tests used:
Experiment in all cases: NCI anticancer screen, dose series, 48 h
NCI-H226 lung = tested on: NCI-H226 lung
NCI-H522 lung = tested on: NCI-H522 lung
BT-549 breast = tested on: BT-549 breast
UACC-257 melanoma = tested on: UACC-257 melanoma
SN12C renal = tested on: SN12C renal
HCC-2998 colon = tested on: HCC-2998 colon
MDA-MB-435 = tested on: MDA-MB-435
HS 578T breast = tested on: HS 578T breast
CCRF-CEM leukemia = tested on: CCRF-CEM leukemia
SF-295 CNS = tested on: SF-295 CNS

Compound	GI50 (NCI-H226 lung)	TGI (NCI-H226 lung)	GI50 (NCI-H522 lung)	TGI (NCI-H522 lung)	GI50 (BT-549 breast)	TGI (BT-549 breast)	GI50 (UACC-257 melanoma)	TGI (UACC-257 melanoma)	GI50 (SN12C renal)	TGI (SN12C renal)	GI50 (HCC-2998 colon)	TGI (HCC-2998 colon)	GI50 (MDA-MB-435)	TGI (MDA-MB-435)	GI50 (HS 578T breast)	TGI (HS 578T breast)	GI50 (CCRF-CEM leukemia)	TGI (CCRF-CEM leukemia)	GI50 (SF-295 CNS)	TGI (SF-295 CNS)
NS(=O)(=O)c1ccc(C2C3=C(CCCC3=O)OC3=C2C(=O)c2ccccc2C3=O)cc1 (stereo not drawn)	1.75 µM	3.36 µM	0.174 µM	0.563 µM	1.12 µM	2.35 µM	0.275 µM	0.922 µM	0.319 µM	1.03 µM	1.47 µM	3.11 µM	0.19 µM	0.357 µM	1.27 µM	9.4 µM	0.383 µM	2.09 µM	1.57 µM	3.31 µM
COc1cc2c(c(OC)c1OC)-c1ccc(NNC(=S)N(Cc3cccc(C[N+](Cc4cccc(CNC56CC7CC(CC(C7)C5)C6)c4)(Cc4cccc(CNC56CC7CC(CC(C7)C5)C6)c4)Cc4cccc(CN(C(=S)NNc5ccc6c(cc5=O)[C@@H](NC(C)=O)CCc5cc(OC)c(OC)c(OC)c5-6)C56CC7CC(CC(C7)C5)C6)c4)c3)C34CC5CC(CC(C5)C3)C4)c(=O)cc1[C@@H](NC(C)=O)CC2 (stereo partly drawn)	1.96 µM	9.97 µM	0.699 µM	1.88 µM	1.55 µM	5.89 µM	4.51 µM	10.3 µM	2.23 µM	6.9 µM	0.635 µM	1.47 µM	0.779 µM	3.5 µM	1.22 µM	6.76 µM	0.904 µM	2.47 µM	1.53 µM	5.92 µM
c1cc(C2CCCCC2)ccc1OCCCCCCN1CCNCC1	4.67 µM	26.4 µM	1.7 µM	3.38 µM	–	–	1.89 µM	3.68 µM	1.79 µM	3.54 µM	2.14 µM	3.76 µM	1.64 µM	3.12 µM	1.96 µM	4.48 µM	1.51 µM	3.39 µM	1.92 µM	3.77 µM
ON(CCc1ccncc1)Cc1ccccc1	–	> 100 µM	–	> 100 µM	–	> 100 µM	–	–	–	> 100 µM	–	–	–	> 100 µM	–	> 100 µM	–	–	–	> 100 µM
O=CN1N=C(c2ccc(Nc3ccnc4cc(Cl)ccc34)cc2)CC1c1ccccc1 (stereo not drawn)	5.22 µM	> 100 µM	–	–	3.81 µM	15.6 µM	10.1 µM	> 100 µM	3.8 µM	> 100 µM	3.5 µM	29.5 µM	1.59 µM	4.67 µM	3.77 µM	71.1 µM	2.51 µM	8.55 µM	2.41 µM	8.91 µM
Cc1[nH]c(C(=O)Nc2ccc(C(=O)N3CCNCC3)cc2OC(C)C)c(Cl)c1Cl	2.5 µM	5.79 µM	1.72 µM	3.42 µM	14.3 µM	29 µM	1.79 µM	3.52 µM	1.94 µM	4.28 µM	1.78 µM	3.38 µM	1.76 µM	3.23 µM	1.74 µM	3.91 µM	2.57 µM	6.94 µM	1.89 µM	3.68 µM
CNc1nc(C)c(-c2nc(Nc3cccc(S(N)(=O)=O)c3)ncc2F)s1	0.0219 µM	3.54 µM	0.0449 µM	0.137 µM	0.0228 µM	0.0753 µM	0.0657 µM	0.232 µM	0.0313 µM	2.69 µM	0.0408 µM	2.48 µM	0.0379 µM	2.45 µM	0.0429 µM	3.97 µM	0.0358 µM	> 40.9 µM	0.0406 µM	6.79 µM
COc1ccc(C2=CC(c3cc(OC)c(OC)c(OC)c3)NC(=O)N2)cc1OC (stereo not drawn)	8.4 µM	> 100 µM	2.78 µM	11.2 µM	–	–	10.8 µM	23.2 µM	2.42 µM	8.33 µM	3.77 µM	12.6 µM	3.1 µM	16.9 µM	–	–	2.65 µM	11 µM	2.34 µM	7.87 µM
C=C1C(=O)O[C@H]2[C@H]1CC/C(CNS(=O)(=O)c1ccc3ccccc3c1)=C\CC[C@@]1(C)O[C@@H]21	13.9 µM	34.8 µM	0.444 µM	1.8 µM	1.76 µM	4.02 µM	1.9 µM	4.54 µM	2.15 µM	7.13 µM	3.68 µM	11.3 µM	2.35 µM	7.37 µM	4.69 µM	29.1 µM	0.399 µM	2.31 µM	7.49 µM	20.9 µM
CCOCC(=O)N[C@H]1CCc2cc(OC)c(OC)c(OC)c2-c2ccc(SC)c(=O)cc21	–	0.398 µM	–	< 0.01 µM	–	–	–	> 100 µM	–	> 100 µM	–	–	–	< 0.01 µM	–	–	–	> 70.2 µM	–	0.253 µM
Cc1ccc2c[c]1[Hg][CH2]COS2(=O)=O	19.8 µM	43.5 µM	22.6 µM	42.8 µM	17.8 µM	31.6 µM	16.4 µM	29.9 µM	17.2 µM	30.9 µM	15.7 µM	34.5 µM	24.7 µM	39.4 µM	23.7 µM	58.1 µM	–	–	–	–
NC(=O)C(Br)CBr (stereo not drawn)	7.68 µM	27.1 µM	–	–	2.39 µM	7.4 µM	1.64 µM	3.27 µM	3.93 µM	20.6 µM	2.18 µM	4.78 µM	1.74 µM	4.33 µM	2.86 µM	14.3 µM	1.05 µM	6.93 µM	14.7 µM	35.2 µM
O=C(Cn1c(=O)c(-c2ccccc2)nc2ccccc21)c1cccnc1	> 100 µM	> 100 µM	> 100 µM	> 100 µM	–	–	> 100 µM	> 100 µM	> 100 µM	> 100 µM	> 100 µM	> 100 µM	> 100 µM	> 100 µM	> 100 µM	> 100 µM	> 100 µM	> 100 µM	> 100 µM	> 100 µM
